± gives the expanded uncertainty stated by the source.
Columns and labels:
[1] = Molar enthalpy of transition or fusion; settings: Crystal; DSC
[2] = Crystal; DTA

For O=C(c1ccccc1)C(C(=O)c1ccccc1)[C@H](C[N+](=O)[O-])c1ccccc1, the “Molar enthalpy of transition or fusion” value [1] was 7.65 ± 0.217 kcal/mol and the Normal melting temperature [2] was 135.60 ± 0.5 °C.

From the NIST ThermoML archive (doi:10.1016/j.tca.2014.01.028)
